Reference: US20230027864A1, “COMPOSITIONS AND METHODS FOR DELIVERY OF AGENTS TO IMMUNE CELLS” (ModernaTX, Inc., priority 2018, published 2023)

Legend:
[1] = tested on: CD3+ T cells; assay: T cell transfection in vitro with varied LNP components, mOX40L mRNA; assay type: cell-based, human; settings: as ionizable lipid or PEG lipid component, Table 23
Protocol: In this example, human peripheral blood mononuclear cells (PBMCs) from two different Donors (Donor 1 and Donor 2) were incubated in the presence of mRNA encoding mouse OX40L (mOX40L) (20 ng or 50 ng) encapsulated in each of the three different LNP compositions tested in Example 3. PBS was used as a negative control. Human PBMCs were incubated ex vivo with the various LNPs at 37° C. After 24 hours, cells were analyzed by flow cytometry for mOX40L protein expression in CD3+ T cells.
In this Example, LNPs were made with various lipid components and at different ratios and were tested for their ability to transfect T cells in vitro. Transfection was performed as in Example 5 using LNPs encapsulating an mRNA encoding mouse OX40L.
In a first set of experiments, phytosterol was used as the immune cell delivery potentiating lipid and other lipid constituents of the LNP were varied.

[2] = tested on: T cells; assay: LNP association and GFP mRNA expression in T cells of human PBMCs; assay type: cell-based; settings: PEG lipid component of the LNP, FIG. 33
Protocol: In a second series of experiments, additional compounds, were tested in the LNPs for their ability to enhance delivery to T cells. For these experiments, the association of the LNP with cells and the expression of mRNA-encoding protein within the transfected cells was assessed at the cell-by-cell level. Peripheral blood mononuclear cells (PBMCs) from human donors were used. PBMCs were predominately T cells (40-60%), B cells (3-15%), and monocytes (15-35%), but also contained small numbers of other cell types. LNPs were incubated with serum or PBS for 30 minutes and then added to the PBMCs. The LNP concentration was 0.050 mg/ml, the LNP volume was 0.1 ml.
LNPs contained 0.1% Rhodamine-DOPE in addition to the other LNP components to facilitate detection. Thus, the ratios set forth in the tables below include 0.1 for the rhodamine label. For example, 50:10:10:27.9:2:0.1 AL:DSPC:chol:sterol:Cmp 428 indicates 50% amino lipid as the ionizable lipid, 10% DSPC as the phospholipid, 10% cholesterol, 27.9% phytosterol, 2% Compound 428 as the PEG lipid and 0.1% for the rhodamine-DOPE label. To prepare a non-labeled LNP, the same ratios are used except that the 0.1% rhodamine label is omitted and an additional 0.1% of structural lipid (cholesterol or cholesterol/phytosterol blend) is used (e.g., 27.9% becomes 28%).
Cells were sorted by flow cytometry into subsets based on expression of certain markers: CD3 (T cells), CD20 (B cells), and CD3-, CD20-, CD14+(Monocytes).
mRNA encoding GFP was used as a model agent to effect expression of an intracellular protein.
When conducting flow cytometry, the Y-axis was signal from the rhodamine tag on the LNP and the X-axis was the GFP signal showing expression of the protein.
The “associated” population is any rhodamine+ and/or GFP+ cell and the percent of these cells was calculated by dividing by the total number of cells. The “expression” population is any GFP+ cell and the percent of these cells was calculated by dividing by the total number of cells. The percent of associated cells expressing was obtained by dividing the % expressing cells by the % associated cells.

[3] = tested on: monocytes; assay: Sterol panel in LNPs, delivery in vivo (FIG. 40); settings: Cmpd X/sterol/Cmpd 428 LNPs, Y-axis percentage of CD3+ cells in spleen expressing mOX40L
Protocol: In a second series of experiments, an additional panel of sterol compounds was tested in LNPs for monocyte delivery in vivo. The results for this panel of sterols tested for the structural lipid component of the LNP are shown in the bar graph of FIG. 40. […] The bars/lanes on the X-axis labeled 1-9 correspond to the following LNP compositions tested for mRNA delivery in vivo: Lane 1 is PBS. Lane 2 is Cmpd X/Cmpd 428, Lane 3 is Cmpd X/β sitosterol/Cmpd 428, Lane 4 is Cmpd X/β-sitosterol-d7/Cmpd 428, Lane 5 is Cmpd X/brassicasterol/Cmpd 428, Lane 6 is Cmpd X/unnamed sterol/Cmpd 428, Lane 7 is Cmpd X/Cmpd S-30/Cmpd 428, Lane S is Cmpd X/Cnpd S-32/Cmpd 428, Lane 9 is Cmpd X/Cmpd S-31/Cmpd 428.

[4] = tested on: T cells; assay: LNP association and GFP mRNA expression in T cells of human PBMCs; assay type: cell-based; settings: third series, in vitro, FIG. 35

SMILES | delivery to T cells with phytosterol-containing LNP [1] | immune cell delivery potentiating ability in T cells, PEG lipid panel [2] | immune cell delivery potentiating ability in monocytes, additional sterol panel in vivo [3] | immune cell delivery potentiating ability in T cells, additional sterol panel [4]
CCCCCCCCCCCCCCCCCC(=O)OCCOCCOCCOCCOCCOCCOCCOCCOCCOCCOCCOCCOCCOCCOCCOCCOCCOCCOCCOCCOCCOCCOCCOCCOCCOCCOCCOCCOCCOCCOCCOCCOCCOCCOCCOCCOCCOCCOCCOCCOCCOCCOCCOCCOCCO [Compound 428] | enhanced delivery to T cells | exhibited immune cell delivery potentiating ability in T cells | – | –
CC(C)[C@@H](C)/C=C/[C@@H](C)[C@H]1CC[C@H]2[C@@H]3CC=C4C[C@@H](O)CC[C@]4(C)[C@H]3CC[C@]12C [brassicasterol] | – | – | exhibited immune cell delivery potentiating ability in monocytes | exhibited immune cell delivery potentiating ability in T cells
